Experimental data: ChEMBL document CHEMBL1201862, “PubChem BioAssay data set” (2004)
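Briefly, cells in 96-well plates were exposed to five compound concentrations for 48 h, and endpoints were estimated by linear interpolation. GI50 = concentration required for 50% inhibition of growth.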 Calls of active or inactive are those of the source. No stated cut-off is given here; in the data, active = GI50 up to about 1.1 µM and inactive = higher.

Legend:
Test in all cases: NCI-60 cell line screen, 48 h
SK-MEL-5 = system: SK-MEL-5
T47D = system: T47D
NCI-H522 = system: NCI-H522
HCC 2998 = system: HCC 2998
LXFL 529 = system: LXFL 529
NCI-H23 = system: NCI-H23
SF-268 = system: SF-268
SNB-75 = system: SNB-75
SK-MEL-2 = system: SK-MEL-2
DMS-114 = system: DMS-114
A549 = system: A549
DMS-273 = system: DMS-273
SR = system: SR
IGROV-1 = system: IGROV-1
RPMI-8226 = system: RPMI-8226
COLO 205 = system: COLO 205
BT-549 = system: BT-549
OVCAR-4 = system: OVCAR-4
HOP-18 = system: HOP-18
RXF 631 = system: RXF 631
Hs-578T = system: Hs-578T
MCF7 = system: MCF7
SK-OV-3 = system: SK-OV-3
UO-31 = system: UO-31
Malme-3M = system: Malme-3M
K562 = system: K562
786-0 = system: 786-0
MOLT-4 = system: MOLT-4
CCRF-CEM = system: CCRF-CEM
M19-MEL = system: M19-MEL
SF-539 = system: SF-539
MDA-MB-435 = system: MDA-MB-435
XF498 = system: XF498
SN12C = system: SN12C
HL-60 = system: HL-60
NCI-H226 = system: NCI-H226
UACC-257 = system: UACC-257
NCI/ADR-RES = system: NCI/ADR-RES
HCT-116 = system: HCT-116
MDA-N = system: MDA-N
OVCAR-3 = system: OVCAR-3
SW-620 = system: SW-620
OVCAR-5 = system: OVCAR-5
KM12 = system: KM12
A498 = system: A498
SNB-19 = system: SNB-19
DLD-1 = system: DLD-1
ACHN = system: ACHN
HCT-15 = system: HCT-15
U-251 = system: U-251
SK-MEL-28 = system: SK-MEL-28
CAKI-1 = system: CAKI-1
PC-3 = system: PC-3
M14 = system: M14
NCI-H460 = system: NCI-H460
SF-295 = system: SF-295
HOP-92 = system: HOP-92
EKVX = system: EKVX
TK-10 = system: TK-10
HT-29 = system: HT-29
OVCAR-8 = system: OVCAR-8
UACC-62 = system: UACC-62
DU-145 = system: DU-145
MDA-MB-231 = system: MDA-MB-231
LOX IMVI = system: LOX IMVI
HOP-62 = system: HOP-62
SNB-78 = system: SNB-78
KM-20L2 = system: KM-20L2
RXF 393 = system: RXF 393

NC(=O)c1c[se]c(C2OC(CO)C(O)C2O)n1 (stereo not given)
GI50 (SK-MEL-5): 10.3 µM (inactive)
GI50 (T47D): > 100 µM (inactive)
GI50 (NCI-H522): 6.25 µM (inactive)
GI50 (HCC 2998): 32.4 µM (inactive)
GI50 (LXFL 529): 17 µM (inactive)
GI50 (NCI-H23): 11 µM (inactive)
GI50 (SF-268): 6.84 µM (inactive)
GI50 (SNB-75): > 59 µM (inactive)
GI50 (SK-MEL-2): > 100 µM (inactive)
GI50 (DMS-114): 25.4 µM (inactive)
GI50 (A549): 8.67 µM (inactive)
GI50 (DMS-273): 3.58 µM (inactive)
GI50 (SR): 8.61 µM (inactive)
GI50 (IGROV-1): 4.98 µM (inactive)
GI50 (RPMI-8226): 6.43 µM (inactive)
GI50 (COLO 205): 1.22 µM (inactive)
GI50 (BT-549): 8.09 µM (inactive)
GI50 (OVCAR-4): 3.99 µM (inactive)
GI50 (HOP-18): > 100 µM (inactive)
GI50 (RXF 631): 7.6 µM (inactive)
GI50 (Hs-578T): > 100 µM (inactive)
GI50 (MCF7): 8.67 µM (inactive)
GI50 (SK-OV-3): > 29 µM (inactive)
GI50 (UO-31): 6.5 µM (inactive)
GI50 (Malme-3M): > 100 µM (inactive)
GI50 (K562): 0.627 µM (active)
GI50 (786-0): 2.44 µM (inactive)
GI50 (MOLT-4): 0.568 µM (active)
GI50 (CCRF-CEM): 0.875 µM (active)
GI50 (M19-MEL): 5.28 µM (inactive)
GI50 (SF-539): 2.43 µM (inactive)
GI50 (MDA-MB-435): 7.29 µM (inactive)
GI50 (XF498): 8.91 µM (inactive)
GI50 (SN12C): > 84.7 µM (inactive)
GI50 (HL-60): 0.984 µM (active)
GI50 (NCI-H226): > 58.6 µM (inactive)
GI50 (UACC-257): > 100 µM (inactive)
GI50 (NCI/ADR-RES): 9.16 µM (inactive)
GI50 (HCT-116): 3.45 µM (inactive)
GI50 (MDA-N): 36.4 µM (inactive)
GI50 (OVCAR-3): 0.74 µM (active)
GI50 (SW-620): 1.47 µM (inactive)
GI50 (OVCAR-5): 31 µM (inactive)
GI50 (KM12): 570 nM (active)
GI50 (A498): 44 µM (inactive)
GI50 (SNB-19): 6.35 µM (inactive)
GI50 (DLD-1): 1.88 µM (inactive)
GI50 (ACHN): 5.94 µM (inactive)
GI50 (HCT-15): 0.537 µM
GI50 (U-251): 0.953 µM (active)
GI50 (SK-MEL-28): 2.61 µM (inactive)
GI50 (CAKI-1): 6.93 µM (inactive)
GI50 (PC-3): 1.44 µM (inactive)
GI50 (M14): 1.63 µM (inactive)
GI50 (NCI-H460): 17.5 µM (inactive)
GI50 (SF-295): 2.39 µM (inactive)
GI50 (HOP-92): > 100 µM (inactive)
GI50 (EKVX): > 79.1 µM (inactive)
GI50 (TK-10): > 91.4 µM (inactive)
GI50 (HT-29): 3.55 µM (inactive)
GI50 (OVCAR-8): 4.31 µM (inactive)
GI50 (UACC-62): 12.3 µM (inactive)
GI50 (DU-145): 31.8 µM (inactive)
GI50 (MDA-MB-231): 5.01 µM (inactive)
GI50 (LOX IMVI): 32.1 µM (inactive)
GI50 (HOP-62): 10.2 µM (inactive)

BrC/C=C/C[P+](c1ccccc1)(c1ccccc1)c1ccccc1
GI50 (SK-MEL-5): 11.1 µM (inactive)
GI50 (NCI-H522): 12.4 µM (inactive)
GI50 (HCC 2998): 35.2 µM (inactive)
GI50 (LXFL 529): 1.7 µM (inactive)
GI50 (NCI-H23): 32.3 µM (inactive)
GI50 (SF-268): 15.7 µM (inactive)
GI50 (SNB-75): 19.8 µM (inactive)
GI50 (SK-MEL-2): 10.8 µM (inactive)
GI50 (DMS-114): 27.5 µM (inactive)
GI50 (A549): 7.87 µM (inactive)
GI50 (DMS-273): 2.44 µM (inactive)
GI50 (IGROV-1): 55.5 µM (inactive)
GI50 (RPMI-8226): 0.927 µM (active)
GI50 (COLO 205): 4.53 µM (inactive)
GI50 (OVCAR-4): 41.1 µM (inactive)
GI50 (HOP-18): 67 µM (inactive)
GI50 (RXF 631): > 100 µM (inactive)
GI50 (SK-OV-3): 86.5 µM (inactive)
GI50 (UO-31): 34.2 µM (inactive)
GI50 (Malme-3M): 12.4 µM (inactive)
GI50 (K562): 2.43 µM (inactive)
GI50 (786-0): 10.3 µM (inactive)
GI50 (MOLT-4): > 100 µM (inactive)
GI50 (CCRF-CEM): > 100 µM (inactive)
GI50 (M19-MEL): 10.8 µM (inactive)
GI50 (SF-539): 1.52 µM (inactive)
GI50 (XF498): 11.1 µM (inactive)
GI50 (SN12C): 19.5 µM (inactive)
GI50 (HL-60): 2.54 µM (inactive)
GI50 (UACC-257): 8.57 µM (inactive)
GI50 (HCT-116): 3.97 µM (inactive)
GI50 (OVCAR-3): 7.28 µM (inactive)
GI50 (SW-620): 6.52 µM (inactive)
GI50 (OVCAR-5): 31 µM (inactive)
GI50 (KM12): 4290 nM (inactive)
GI50 (SNB-78): 21 µM (inactive)
GI50 (SNB-19): 21.3 µM (inactive)
GI50 (ACHN): 12.2 µM (inactive)
GI50 (KM-20L2): 27.2 µM (inactive)
GI50 (U-251): 24 µM (inactive)
GI50 (SK-MEL-28): 33.3 µM (inactive)
GI50 (M14): 13.7 µM (inactive)
GI50 (NCI-H460): 7.46 µM (inactive)
GI50 (SF-295): 13.1 µM (inactive)
GI50 (HOP-92): 11.7 µM (inactive)
GI50 (TK-10): 11.6 µM (inactive)
GI50 (OVCAR-8): 3.91 µM (inactive)
GI50 (UACC-62): 9.04 µM (inactive)
GI50 (LOX IMVI): 10.4 µM (inactive)
GI50 (HOP-62): 19.6 µM (inactive)

COc1ccc(C2C(C(=O)O)=C(CO)Oc3cc4c(cc32)OCO4)c(OC)c1 (stereo not given)
GI50 (SK-MEL-5): 42.8 µM (inactive)
GI50 (NCI-H23): > 100 µM (inactive)
GI50 (SNB-75): > 100 µM (inactive)
GI50 (DMS-114): 84.5 µM (inactive)
GI50 (A549): 70.3 µM (inactive)
GI50 (DMS-273): 60.3 µM (inactive)
GI50 (IGROV-1): > 100 µM (inactive)
GI50 (RPMI-8226): > 100 µM (inactive)
GI50 (COLO 205): 68.7 µM (inactive)
GI50 (OVCAR-4): 78 µM (inactive)
GI50 (HOP-18): 98.2 µM (inactive)
GI50 (RXF 631): 87.3 µM (inactive)
GI50 (SK-OV-3): > 100 µM (inactive)
GI50 (UO-31): 36.9 µM (inactive)
GI50 (Malme-3M): > 100 µM (inactive)
GI50 (K562): 87.5 µM (inactive)
GI50 (786-0): > 100 µM (inactive)
GI50 (MOLT-4): 22.5 µM (inactive)
GI50 (CCRF-CEM): 31 µM (inactive)
GI50 (M19-MEL): 60.4 µM (inactive)
GI50 (SF-539): 70 µM (inactive)
GI50 (XF498): 9.73 µM (inactive)
GI50 (SN12C): 43.1 µM (inactive)
GI50 (HL-60): > 100 µM (inactive)
GI50 (UACC-257): > 100 µM (inactive)
GI50 (HCT-116): 78.2 µM (inactive)
GI50 (OVCAR-3): 57.5 µM (inactive)
GI50 (SW-620): > 100 µM (inactive)
GI50 (SNB-78): > 100 µM (inactive)
GI50 (SNB-19): 70.5 µM (inactive)
GI50 (DLD-1): 54.7 µM (inactive)
GI50 (ACHN): 63.1 µM (inactive)
GI50 (HCT-15): 67.9 µM
GI50 (KM-20L2): > 100 µM (inactive)
GI50 (U-251): 81.1 µM (inactive)
GI50 (SK-MEL-28): 46.2 µM (inactive)
GI50 (CAKI-1): 88.1 µM (inactive)
GI50 (M14): > 100 µM (inactive)
GI50 (NCI-H460): > 100 µM (inactive)
GI50 (SF-295): 62.7 µM (inactive)
GI50 (HOP-92): > 100 µM (inactive)
GI50 (EKVX): > 100 µM (inactive)
GI50 (TK-10): > 100 µM (inactive)
GI50 (HT-29): 67.6 µM (inactive)
GI50 (OVCAR-8): 98.4 µM (inactive)
GI50 (UACC-62): 57.3 µM (inactive)
GI50 (RXF 393): > 100 µM (inactive)
GI50 (LOX IMVI): 45.1 µM (inactive)
GI50 (HOP-62): 18.8 µM (inactive)
